The values that follow come from patent US9586901B2, “Lactams” (UNILEVER PLC, priority 2006, dated 2017).

The test system of one data set is Murine L929 cells. The experiment in a line: Cytotoxicity study, L929 cell number after 48 hour culture. Type of data set: cell-based. To be noted: for Mean (cell number): L929, 48 hour; for % Inhibition: cell number vs non-challenged cultures. As to the method:
Murine L929 cells are established at low density and, during the testing period, grow to confluency in plastic petri dishes. 24 hours after the dishes are inoculated, the medium on the test dishes is aspirated and replaced with a medium containing the compound to be tested. The cell monolayer is then cultured for a further 48 hour period. At the end of the test period, cells are harvested from the dishes and their numbers assessed and compared with unperturbed cultures. Differences in cell numbers are expressed as a percentage inhibition in comparison to non-challenged cultures.

Data set [1] has as its system Pseudomonas aeruginosa PAO1 (wt). The experiment in a line: Pulmonary model of infection: mice challenged with bacteria/seaweed alginate through the trachea. Type of data set: in vivo. As to the method: The first group was treated with 5-methylene-4-phenyl-dihydro-pyrrol-2-one (C219) as 12 μg/g body weight, given as injections twice a day for three days and the second group were treated with vehicle. (p=0.0008).
This model is reminiscent of the situation in CF patients or patients with a dysfunctional muccociliary escalator.
The treatment dosage of 5-methylene-4-phenyl-dihydro-pyrrol-2-one (C219) was 12 μg/g body weight, given as injections twice a day.
Mice were challenged with Pseudomonas aeruginosa PAO1 (wt) 5.2×10^6 CFU/lung (1.3×10^8 CFU/ml). Each group holds 10 mice, the treatments with C219 and Vehicle lasted for three days. The mortality was 10% in C219 and 30% in Vehicle groups. At day 5, the surviving mice were sacrificed.

The subject of the next data set is V. fischeri luxRI system. The experiment in a line: N-acylated homoserine lactone (AHL) quorum sensing assay, GFP reporter strain. Conditions: for ID40 at 3 nM OHHL: Table 4, number in parentheses, amount of compound lowering relative activity to 40%. Type of data set: cell-based, E. coli. On the procedure:
Compounds of the present invention were compared to compounds of the prior art in order using an AHL-quorum sensing assay which utilises a reporter strain that expresses Green Fluorescent Protein (GFP) in the presence of AHL signals. The assay is performed by measuring GFP output in the presence of the compound to be measured and comparing the output to a control. By using multiple samples at varying concentrations of compound and AHL, an inhibition index of compound activity can be generated. The inhibition index used in the present example is the relative amount of compound required to reduce GFP expression to 40% of the control. The inhibition index is termed AIC40. Lower values of AIC40 represent better inhibitors of the AHL quorum sensing system.
The reporter strain of bacterium used in this assay is E. coli into which the V. fischeri luxRI system has been engineered. A gfp gene is fused to the QS controlled luxI promoter as is described in (Andersen et al., 2001, and Andersen et al, 1998).
Measurement of AIC40 (ID40 at 3 nM OHHL)
Determination of the activity of compounds using the E. coli based luxRI construct was performed as follows.
In a 15 mL plastic tube, mix 3 mL of o.n. culture of the lux reporter strain with 12 mL fresh medium, incubate at 37° C. Label six tubes, 10, 20, two 50 and two 100. To each of the tubes, add OHHL (3-oxohexanoyl homoserine lactone) to a final concentration of 10, 20, 50, or 100 nM respectively in the AB medium (add enough medium to distribute across the appropriate number of wells). To the first row of the microplate (row A), add 200 ul of the OHHL/AB mixture. To the remaining rows (B-H) add 100 ul of the OHHL/AB mixture. To the first row (A) add compounds to be tested to the 200 ul mixture of OHHL/AB. Make a dilution series in the first 7 rows by transferring 100 μL from wells in row 1 to wells in row 2 and so on. Discard the remaining 100 μL from row 7. Add 100 μL diluted lux monitor to each well. Incubate the plate 2 hours at 37° C. and measure green fluorescence using the “Victor” plate reader.
Calculate ID40 for each column. To do this, calculate the relative activity in each well. […] Make a plot for each concentration of OHHL vs. the range of compound concentrations used. Calculate the amount of compound needed to lower the relative activity to 40%, this is termed inhibiting dose 40%, ID40. For each compound an inhibition index, AIC40, is found as follows: plot ID40 against its respective AHL concentration; AIC40 is the slope of the best straight line through the plotted points and origin.
The methodology for this assay is set out in 2(a) above.

In the next data set the test system is E. coli biofilm. The experiment in a line: Inhibition of biofilm formation in petri dishes, E. coli. Type of data set: cell-based. To be noted: percent reduction of control. As to the method:
(§1) Biofilm formation in petri dishes was measured using the following protocol as a compromise between flow cells and microtitire plate based assays. The method increases the number of replicates (relative to flow cells) that can be tested while still generating a biofilm that has typical structures, such as microcolonies, which are important as differentiated structures within the biofilm. The method consists of placing a surface, such as a glass slide (for unattached compounds) or a modified plastic coupon (for covalently attached compounds) on the bottom of a sterile petri dish and adding growth medium. The bacteria are inoculated into the dish and allowed to incubate at the appropriate temperature at 50 rpm. The medium is replaced at 24 h and allowed to incubate a further 24 h, after which time, the slides are removed and rinsed to remove loosely attached cells. For monitoring biofilm formation on glass slides, the cells are either stained with a suitable fluorescent stain and are visualised using the confocal microscope and the biofilm (as % surface coverage) is quantified, or the biofilm is stained with crystal violet, washed thoroughly to remove excess stain, and subsequently destained and the absorbance at […] is measured to determine the amount of biofilm, as a function of crystal violet staining.

Data set [2] concerns Staphylococcus epidermidis. The experiment in a line: S. epidermidis growth inhibition (OD600 growth curves). The data set is classed as cell-based. Conditions: concentration of compound that significantly alters growth rate or final growth yield. On the procedure:
The growth inhibition of Staphylococcus epidermidis by the compounds of the present invention was determined by growing S. epidermidis in 96 well microtitre plates in Trypticase Soy Broth plus 0.5% glucose in a Wallac Victor2 microplate reader. Each compound was added to the wells at different concentrations and a no-compound control and a set of blank wells were also used. The OD600 was measured hourly.

In another data set the test system is P. aeruginosa biofilm. The experiment in a line: Inhibition of biofilm formation in petri dishes, P. aeruginosa. Conditions: percent reduction of control. The data set is classed as cell-based. As to the method:
as §1

Another data set deals with LasR. The experiment in a line: LasR assay (unstable gfp fused to the elastase promoter). Type of data set: cell-based. To be noted: Pseudomonas aeruginosa, read-out: LasR (conc). On the procedure:
Compounds of the present invention were also assayed using a LasR assay. The LasR assay provides a measurement of quorum sensing inhibition activity. The higher the percentage inhibition. […] In the LasR assay, an unstable gfp has been fused to the elastase promoter, so that the amount of Gfp is regulated by the QS system. The plasmid is put into Pseudomonas aeruginosa which makes its own AHL signals. The assay is performed by adding the compounds to be tested to the system at the beginning of the experiment, at different concentrations. Gfp expression is measured at different times during growth, ending at the 24 h time point. The percentage fluorescence was determined at the time point when the fluorescence reached its maximum in the control, usually around 11-12 h after inoculation.

The test system of another data set is S. epidermidis biofilm. The experiment in a line: Inhibition of biofilm formation in petri dishes, S. epidermidis. Type of data set: cell-based. Conditions: 0.32 ug/ml; percent reduction of control. As to the method: as §1
[3] abbreviates: Table 4 comparative results, first number of the cell, lower = better.
[4] abbreviates: inhibition index: slope of ID40 against AHL concentration, lower = better inhibitor, NE = no effect.

For `C=C1NC(=O)C=C1c1ccccc1` [Compound 219, 5-methylene-4-phenyl-dihydro-pyrrol-2-one], the “Mean (cell number)” value is on record as 5.41E+05 in the data set on Murine L929 cells (10 μg/ml); 4.95E+05 in the data set with Murine L929 cells (20 μg/ml); 4.74E+05 in the data set with Murine L929 cells (40 μg/ml, E+05 = ×10^5). The “% Inhibition” value in the data set on Murine L929 cells (10 μg/ml) is reported as −10.3%; with Murine L929 cells (20 μg/ml) it was −1.0%; in the data set on Murine L929 cells (40 μg/ml, 30% = cytotoxic potential), 3.4%. Moreover, the “cytotoxicity (in words)” value with Murine L929 cells (compared with compounds 226 and 223) is given as “surprisingly little or no cytotoxicity”. Moreover, the mortality in data set [1] (12 μg/g body weight, injections twice a day for three days, 10 mice per group, Vehicle 30%) was 10%. For the same compound, the “severity (LIMP) of P aeruginosa lung infection” value in data set [1] (LIMP = fraction of total lung area showing inflammation, 12 μg/g twice a day for three days, vs vehicle) was “significantly reduced the severity (LIMP)”. The lung bacterial load entry in data set [1] (day 5, 12 μg/g twice a day for three days, vs Vehicle, p=0.0008 (FIG. 1)) is “significantly reduced the lung bacterial load”. Further, the AIC40 result in the data set on V. fischeri luxRI system (setting [3]) was “significantly better AIC40 values than compounds 198 and 205”.
In the case of `C=C1NC(=O)C=C1c1ccccc1` [drawing 20], the E. coli biofilm in the data set on E. coli biofilm (5 ug/ml) is on record as 95% (5 ug/ml). In addition, in data set [2], the minimal effective concentration worked out at 5 µg/mL. The P. aeruginosa biofilm in the data set with P. aeruginosa biofilm (10 ug/ml) was 88% (10 ug/ml). The inhibition at 50 µg/mL with LasR came out at 80%. In the data set with V. fischeri luxRI system (unit not given), the “ID40 at 3 nM OHHL” value is on record as 16.2. Also, the AIC40 in the data set with V. fischeri luxRI system (setting [3]) and in the data set on V. fischeri luxRI system (setting [4]) was 1.1 throughout.
On to `C=C1NC(=O)C=C1c1ccc(Br)cc1` [drawing 25], for which, in the data set with E. coli biofilm (1.5 ug/ml), the E. coli biofilm is on record as 93% (1.5 ug/ml). Further, the S. epidermidis biofilm in the data set on S. epidermidis biofilm is 41% (0.32 ug/ml). Further, the minimal effective concentration in data set [2] worked out at 1 µg/mL. Moreover, the P. aeruginosa biofilm with P. aeruginosa biofilm (1 ug/ml) is given as 32% (1 ug/ml). Besides, the inhibition at 50 µg/mL in the data set with LasR was found to be 45%. For the same compound, the “ID40 at 3 nM OHHL” value in the data set with V. fischeri luxRI system stood at 21 nM. In addition, the AIC40 in the data set on V. fischeri luxRI system (setting [3]) and with V. fischeri luxRI system (setting [4]) was 0.49 each time.
